In patent US20120115896A1, “ISOGENIC HUMAN CELL LINES COMPRISING MUTATED CANCER ALLELES AND PROCESS USING THE CELL LINES” (priority 2008, published 2012):
Read-outs that look alike come from different tables or passages of the source.

Assays:
[1] = test system: hTERT-HME1 DKI cells carrying PIK3CA (H1047R) and EGFR (delE746-A750)
[2] = test system: hTERT-HME1 cells carrying KRAS (G13D) KI
[3] = test system: hTERT-HME1 cells carrying BRAF (V600E) KI
[4] = test system: hTERT-HME1 cells carrying EGFR (delE746-A750) KI
[5] = test system: hTERT-HME1 cells carrying PIK3CA (E545K and H1047R) KI
[6] = test system: HCT 116 colorectal cancer cells and derivative clones (HKh-2, HKe-3, HK2-6, PIK3CA WT/mutant); assay: Viability (ATP assay) of HCT 116 cells and isogenic KRAS / PIK3CA derivative clones; details: HCT 116, FIG. 8A
Description: (§1) Results are expressed as percent of viability compared to cells treated with DMSO only ('control') and represent mean±SD of at least three independent observations.
(§2) After serial dilutions, 100 μl of drugs in serum free medium were added to cells with a multichannel pipette. Vehicle and medium-only containing wells were added as controls. Plates were incubated at 37° C. in 5% CO2 for 96 h, after which cell viability was assessed by ATP content using the CellTiter-Glo® Luminescent Assay (Promega Madison, Wis.).

[7] = test system: DLD-1 colorectal cancer cells and derivative clones (DKO-1, DKO-3, DKO-4, PIK3CA WT/mutant); assay: Viability (ATP assay) of DLD-1 cells and isogenic KRAS / PIK3CA derivative clones; details: DLD-1, FIG. 8B
Description: as §1, §2

SMILES: O=C1C[C@@H](c2ccc(O)cc2)Oc2cc(O)cc(O)c21 [Naringenin]
- ΔKI PIK3CA + EGFR ([1]; Log(M) −3.05): 0
- ΔKI PIK3CA + EGFR ([1]; Log(M) −3.52): 0
- ΔKI PIK3CA + EGFR ([1]; Log(M) −4.00): 0
- ΔKI KRAS ([2]; Log(M) −3.05): 0
- ΔKI KRAS ([2]; Log(M) −3.52): 0
- ΔKI KRAS ([2]; Log(M) −4.00): 0
- ΔKI BRAF ([3]; Log(M) −3.05): −0.08
- ΔKI BRAF ([3]; Log(M) −3.52): 0
- ΔKI BRAF ([3]; Log(M) −4.00): −1.5
- ΔKI EGFR ([4]; Log(M) −3.05): 0
- ΔKI EGFR ([4]; Log(M) −3.52): 0
- ΔKI EGFR ([4]; Log(M) −4.00): 0
- ΔKI PIK3CA ([5]; Log(M) −3.05): 0
- ΔKI PIK3CA ([5]; Log(M) −3.52): 0
- ΔKI PIK3CA ([5]; Log(M) −4.00): 0

SMILES: CCN(CC)CCNC(=O)c1cc(Cl)c(N)cc1OC [Metoclopramide]
- ΔKI PIK3CA + EGFR ([1]; Log(M) −3.10): 2.8
- ΔKI PIK3CA + EGFR ([1]; Log(M) −3.35): 0
- ΔKI PIK3CA + EGFR ([1]; Log(M) −3.57): 0
- ΔKI PIK3CA + EGFR ([1]; Log(M) −3.70): 0.2
- ΔKI PIK3CA + EGFR ([1]; Log(M) −3.82): 0
- ΔKI PIK3CA + EGFR ([1]; Log(M) −4.05): 0
- ΔKI PIK3CA + EGFR ([1]; Log(M) −4.30): 0
- ΔKI PIK3CA + EGFR ([1]; Log(M) −4.52): 0
- ΔKI KRAS ([2]; Log(M) −3.10): 0
- ΔKI KRAS ([2]; Log(M) −3.35): 0
- ΔKI KRAS ([2]; Log(M) −3.57): 0
- ΔKI KRAS ([2]; Log(M) −3.70): 0
- ΔKI KRAS ([2]; Log(M) −3.82): 0
- ΔKI KRAS ([2]; Log(M) −4.05): 0
- ΔKI KRAS ([2]; Log(M) −4.30): 0
- ΔKI KRAS ([2]; Log(M) −4.52): 0
- ΔKI BRAF ([3]; Log(M) −3.10): −4.48
- ΔKI BRAF ([3]; Log(M) −3.35): 0
- ΔKI BRAF ([3]; Log(M) −3.57): 0
- ΔKI BRAF ([3]; Log(M) −3.70): −0.66
- ΔKI BRAF ([3]; Log(M) −3.82): 0
- ΔKI BRAF ([3]; Log(M) −4.05): 0
- ΔKI BRAF ([3]; Log(M) −4.30): 0
- ΔKI BRAF ([3]; Log(M) −4.52): 0
- ΔKI EGFR ([4]; Log(M) −3.10): 0
- ΔKI EGFR ([4]; Log(M) −3.35): 9.94
- ΔKI EGFR ([4]; Log(M) −3.57): 0
- ΔKI EGFR ([4]; Log(M) −3.70): 0
- ΔKI EGFR ([4]; Log(M) −3.82): 0
- ΔKI EGFR ([4]; Log(M) −4.05): 0
- ΔKI EGFR ([4]; Log(M) −4.30): 0
- ΔKI EGFR ([4]; Log(M) −4.52): 0
- ΔKI PIK3CA ([5]; Log(M) −3.10): 0
- ΔKI PIK3CA ([5]; Log(M) −3.35): 0
- ΔKI PIK3CA ([5]; Log(M) −3.57): 0
- ΔKI PIK3CA ([5]; Log(M) −3.70): 0
- ΔKI PIK3CA ([5]; Log(M) −3.82): 0
- ΔKI PIK3CA ([5]; Log(M) −4.05): 0
- ΔKI PIK3CA ([5]; Log(M) −4.30): 0
- ΔKI PIK3CA ([5]; Log(M) −4.52): 0

SMILES: O=C(NOCC1CC1)c1ccc(F)c(F)c1Nc1ccc(I)cc1Cl [CI-1040, CI-1040 (PD 184352)]
- effect on PIK3CA WT/− cells versus isogenic PIK3CA mutant cells [6]: affects to a greater extent
- effect on PIK3CA mutant cells in combination with everolimus ([6]; with everolimus 10^−7 M): effects comparable to those achievable by the MEK inhibitor alone
- effect on PIK3CA WT/− cells versus isogenic PIK3CA mutant cells [7]: affects to a greater extent
- effect on PIK3CA mutant cells in combination with everolimus ([7]; with everolimus 10^−7 M): effects comparable to those achievable by the MEK inhibitor alone

SMILES: CC(C)=CCc1c(O)cc(O)c2c1O[C@H](c1ccc(O)cc1)CC2=O [8-Prenylnaringenin]
- ΔKI PIK3CA + EGFR ([1]; Log(M) −3.20): 0.02
- ΔKI PIK3CA + EGFR ([1]; Log(M) −3.68): 1.52
- ΔKI KRAS ([2]; Log(M) −3.20): 0.02
- ΔKI KRAS ([2]; Log(M) −3.68): 0
- ΔKI BRAF ([3]; Log(M) −3.20): 0.02
- ΔKI BRAF ([3]; Log(M) −3.68): 0.88
- ΔKI EGFR ([4]; Log(M) −3.20): 0
- ΔKI EGFR ([4]; Log(M) −3.68): 1.16
- ΔKI PIK3CA ([5]; Log(M) −3.20): 0.02
- ΔKI PIK3CA ([5]; Log(M) −3.68): 0
